Laboratory results taken from patent US20260191998A1, “INDOLE PHTHALOCYANINE COMPOUND, PREPARATION METHOD THEREFOR, AND USE THEREOF IN TUMOR DIAGNOSIS IMAGING” (JIANGSU YAHONG MEDITECH CO., LTD., priority 2022, published 2026).

Legend:
[1] = test system: human bladder cancer cell line UM-UC-3; test: In vitro imaging effect test with addition of BSP, UM-UC-3; assay type: cell-based; settings: 250 μM BSP, compound 1-20 μM with surfactin 1:5, 30 minutes
Experimental: UM-UC-3 (1.5×10^4/well) were cultured in EMEM medium (containing 10% fetal bovine serum (FBS) and 1% antibiotics (100 U/mL penicillin and 100 U/mL streptomycin)) and seeded in a 96-well plate in advance. The plate was cultured in a 5% CO2 cell culture incubator at 37° C. overnight. The following day, the culture medium was sucked away, and 250 μM of BSP was added to the test wells and preconditioned for 10 minutes, followed by addition of the culture medium containing an appropriate concentration (1-20 μM) of the compound and surfactin (the molar ratio of the test compound to the surfactin being 1:5) with or without 250 μM of BSP, and then incubated for 30 minutes. The cells were rinsed three times with PBS solution, and the near-infrared fluorescence intensity in the bladder cancer cells was observed using an integrated fluorescence microscopic imaging system from Keyence. The conditions for near-infrared photography were Ex=775/50 nm and Em=845/55 nm.

[2] = UV-VIS absorption spectra (optical property test); assay type: physicochemical; settings: 10 μM, DMSO solution; for Absorbance × 10^4: at maximum absorption peak
Experimental: The UV-VIS absorption spectra of the compounds (10 μM, DMSO solution) were detected using Shimadzu UV2600 spectrophotometer, and the maximum absorption peak and absorbance of each compound were obtained.

Row | Compound | Uptake by UM-UC-3 with or without BSP [1] | Absorption peak [2] [nm] | Absorbance × 10^4 [2]
1 | CC[N+]1=C(/C=C/C2=C(Cl)C(=C/C=C3/N(Cc4ccc(C(=O)Oc5ccccc5)cc4)c4ccccc4C3(C)C)/CCC2)C(C)(C)c2ccccc21 [Example 6, 2-((E)-2-((E)-2-chloro-3-(2-((E)-3,3-dimethyl-1-(4-(phenoxycarbonyl)bromo)indolin-2-ylidene)ethenyl)cyclohex-1-en-1-yl)ethenyl)-1-ethyl-3,3-dimethyl-3H-indol-1-ium Chloride] | may be weakened or enhanced by BSP | 795 | 1.8
2 | CC[N+]1=C(/C=C/C2=C(Cl)C(=C/C=C3/N(CCCCCC(=O)Oc4ccccc4)c4ccccc4C3(C)C)/CC2)C(C)(C)c2ccccc21 [Example 4, 2-((E)-2-((E)-2-chloro-3-(2-((E)-3,3-dimethyl-1-(6-oxo-6-phenoxyhexyl)indolin-2-ylidene)ethenyl)cyclopent-1-en-1-yl)ethenyl)-1-ethyl-3,3-dimethyl-3H-indol-1-ium Chloride] | may be weakened or enhanced by BSP | 821 | 2.36
